Common to all, as to type: physicochemical
Data set [1] can be described thus: In vitro drug release (dissolution) profile, USP apparatus 1, 0.1 N HCl. The following applies: 50 RPM, solid composition with pregelatinized starch. On the procedure:
Optically pure Ramipril(I) obtained from example 1 is formulated as a solid pharmaceutical composition by conventional way of direct mixing process with excipients such as pregelatinized starch.
Ramipril(I) monohydrate obtained from example 5 is formulated as a solid pharmaceutical composition by conventional way of direct mixing process with excipients such as pregelatinized starch.
The in vitro drug release profile was carried out using USP apparatus 1,500 ml of 0.1 N HCl at 50 RPM. Following table provides a comparison of dissolution profile of Ramipril(I) crystallized from diethoxymethane as well as the Ramipril(I) monohydrate and prior art method.

The nature of data set [2]: Thermal stability of the hydrate form. The following applies: converts to anhydrous form on heating above 40° C. How it is done: The novel hydrate of Ramipril(I) occurs in crystalline form. It is readily converted to the anhydrous moiety by heating at a temperature in the range from 40° C. to 42° C. under reduced pressure of 2 to 5 mm hg. The novel hydrate form is stable up to a temperature of 25° C. The monohydrate is transformed into anhydrous Ramipril(I), the so-called “anhydrate” on heating above 40° C. with a speed depending on the conditions of dehydration.

Data set [3] in a line: Bulk density (B.D.) of crystalline material. The source says: The bulk density is an economically, commercially, and functionally important property. […] Moreover, when shipping powders over long distances a high bulk density results in reducing the shipping volume. A high bulk density compound also saves packing material and storage capacity.
Data set [4] is described as follows: Stability study at 40° C./75% RH, assay by HPLC. As to conditions: crystallized by Diethoxymethane.
Data set [5] in a line: Tapped density (T.D.) of crystalline material.
[6] abbreviates: Present invention, solvent 2,2-Dimethoxy-propane.
[7] abbreviates: Present invention, solvent Diethoxymethane.
[8] abbreviates: Present invention, solvent Methyl formate.
[9] abbreviates: Present invention, solvent Nitromethane.
Setting [10] is: Prior art method, solvent Ethanol-diethyl ether.
The mark [11] stands for this setting: Prior art method, solvent Ethanol-diisopropyl ether.

Molecules are shown by their SMILES. A value given as a limit tells only on which side of the number the result lay.

Turning to `CCOC(=O)[C@H](CCc1ccccc1)N[C@@H](C)C(=O)N1[C@H](C(=O)O)C[C@@H]2CCC[C@@H]21.O` [Monohydrate Ramipril(I)], the figures for the “% Drug release of the Label claim” value in data set [1] (5 Min.) and in data set [1] (10 Min.) were 40.8% and 87%, respectively. In data set [2], the “temperature up to which the form is stable” value was no more than 25 °C.
For the compound `CCOC(=O)[C@H](CCc1ccccc1)N[C@@H](C)C(=O)N1[C@H](C(=O)O)C[C@@H]2CCC[C@@H]21` [anhydrous Ramipril(I)], the bulk density in data set [3] was 0.3 to 0.35 g/mL.
In the case of `CCOC(=O)[C@H](CCc1ccccc1)N[C@@H](C)C(=O)N1[C@H](C(=O)O)C[C@@H]2CCC[C@@H]21` [Crystallised from Diethoxymethane, (2S,3aS,6aS)-1-[(S)-2-[[(S)-1-(ethoxycarbonyl)-3-phenylpropyl]-amino]propanoyl]octahydrocyclopenta[b]pyrrole-2-carboxylic acid], the “% Drug release of the Label claim” value was determined as 48.4% in data set [1] (5 Min.) and 93.8% in data set [1] (10 Min.).
Take `CCOC(=O)[C@H](CCc1ccccc1)N[C@@H](C)C(=O)N1[C@H](C(=O)O)C[C@@H]2CCC[C@@H]21` [Ramipril(I), (2S,3aS,6aS)-1-[(S)-2-[[(S)-1-(ethoxycarbonyl)-3-phenylpropyl]-amino]propanoyl]octahydrocyclopenta[b]pyrrole-2-carboxylic acid]: the B.D. lay in the range of 0.1 to 0.13 g/mL in data set [3] (setting [6]); 0.22 to 0.24 g/mL in data set [3] (setting [7]); 0.11 to 0.13 g/mL in data set [3] (setting [8]); 0.12 to 0.14 g/mL in data set [3] (setting [9]); 0.09 to 0.12 g/mL in data set [3] (setting [10]); 0.08 to 0.1 g/mL in data set [3] (setting [11]). The “Assay by HPLC(%)” value in data set [4] (40° C. ± 2° C./75% ± 5% RH, 1 Month) came to 99.5%; in data set [4] (40° C. ± 2° C./75% ± 5% RH, 2 Month), 99.2%; in data set [4] (40° C. ± 2° C./75% ± 5% RH, 3 Month), 99.12%; in data set [4] (Initial), 99.68%. Besides, the T.D. in data set [5] (setting [6]) is 0.14 to 0.18 g/mL; in data set [5] (setting [7]), 0.32 to 0.37 g/mL; in data set [5] (setting [8]), 0.15 to 0.17 g/mL; in data set [5] (setting [9]) it was 0.15 to 0.17 g/mL; in data set [5] (setting [10]) it was 0.15 to 0.17 g/mL; in data set [5] (setting [11]), 0.13 to 0.15 g/mL.
In the case of `CCOC(=O)[C@H](CCc1ccccc1)N[C@@H](C)C(=O)N1[C@H](C(=O)O)C[C@@H]2CCC[C@@H]21` [Prior art Method], the “% Drug release of the Label claim” value in data set [1] (5 Min.) is 18.8%; in data set [1] (10 Min.), 75%.

The values are drawn from patent US20080171780A1, “Process for Crystallization of Ramipril and Preparation of a Hydrated Form Thereof” (LUPIN LIMITED, priority 2004, published 2008).
